Assay results taken from publication PMC8689225, “Cardiac ryanodine receptor N-terminal region biosensors identify novel inhibitors via FRET-based high-throughput screening” (The Journal of Biological Chemistry, 2021).
Read-outs that look alike come from different tables or passages of the source.

Experiments:
[1] = target: T1, RyR1 (Sus scrofa, UniProt P16960); assay: [3H]ryanodine binding to skeletal SR (HSR) vesicles; assay type: biochemical, pig; conditions: for EC50: Table S4, read-out: EC50, [3H]ryanodine binding, skeletal HSR
T1 construct: from tissue; host or cells: porcine longissimus dorsi muscle, heavy SR vesicles
T1 sequence (P16960 whole entry): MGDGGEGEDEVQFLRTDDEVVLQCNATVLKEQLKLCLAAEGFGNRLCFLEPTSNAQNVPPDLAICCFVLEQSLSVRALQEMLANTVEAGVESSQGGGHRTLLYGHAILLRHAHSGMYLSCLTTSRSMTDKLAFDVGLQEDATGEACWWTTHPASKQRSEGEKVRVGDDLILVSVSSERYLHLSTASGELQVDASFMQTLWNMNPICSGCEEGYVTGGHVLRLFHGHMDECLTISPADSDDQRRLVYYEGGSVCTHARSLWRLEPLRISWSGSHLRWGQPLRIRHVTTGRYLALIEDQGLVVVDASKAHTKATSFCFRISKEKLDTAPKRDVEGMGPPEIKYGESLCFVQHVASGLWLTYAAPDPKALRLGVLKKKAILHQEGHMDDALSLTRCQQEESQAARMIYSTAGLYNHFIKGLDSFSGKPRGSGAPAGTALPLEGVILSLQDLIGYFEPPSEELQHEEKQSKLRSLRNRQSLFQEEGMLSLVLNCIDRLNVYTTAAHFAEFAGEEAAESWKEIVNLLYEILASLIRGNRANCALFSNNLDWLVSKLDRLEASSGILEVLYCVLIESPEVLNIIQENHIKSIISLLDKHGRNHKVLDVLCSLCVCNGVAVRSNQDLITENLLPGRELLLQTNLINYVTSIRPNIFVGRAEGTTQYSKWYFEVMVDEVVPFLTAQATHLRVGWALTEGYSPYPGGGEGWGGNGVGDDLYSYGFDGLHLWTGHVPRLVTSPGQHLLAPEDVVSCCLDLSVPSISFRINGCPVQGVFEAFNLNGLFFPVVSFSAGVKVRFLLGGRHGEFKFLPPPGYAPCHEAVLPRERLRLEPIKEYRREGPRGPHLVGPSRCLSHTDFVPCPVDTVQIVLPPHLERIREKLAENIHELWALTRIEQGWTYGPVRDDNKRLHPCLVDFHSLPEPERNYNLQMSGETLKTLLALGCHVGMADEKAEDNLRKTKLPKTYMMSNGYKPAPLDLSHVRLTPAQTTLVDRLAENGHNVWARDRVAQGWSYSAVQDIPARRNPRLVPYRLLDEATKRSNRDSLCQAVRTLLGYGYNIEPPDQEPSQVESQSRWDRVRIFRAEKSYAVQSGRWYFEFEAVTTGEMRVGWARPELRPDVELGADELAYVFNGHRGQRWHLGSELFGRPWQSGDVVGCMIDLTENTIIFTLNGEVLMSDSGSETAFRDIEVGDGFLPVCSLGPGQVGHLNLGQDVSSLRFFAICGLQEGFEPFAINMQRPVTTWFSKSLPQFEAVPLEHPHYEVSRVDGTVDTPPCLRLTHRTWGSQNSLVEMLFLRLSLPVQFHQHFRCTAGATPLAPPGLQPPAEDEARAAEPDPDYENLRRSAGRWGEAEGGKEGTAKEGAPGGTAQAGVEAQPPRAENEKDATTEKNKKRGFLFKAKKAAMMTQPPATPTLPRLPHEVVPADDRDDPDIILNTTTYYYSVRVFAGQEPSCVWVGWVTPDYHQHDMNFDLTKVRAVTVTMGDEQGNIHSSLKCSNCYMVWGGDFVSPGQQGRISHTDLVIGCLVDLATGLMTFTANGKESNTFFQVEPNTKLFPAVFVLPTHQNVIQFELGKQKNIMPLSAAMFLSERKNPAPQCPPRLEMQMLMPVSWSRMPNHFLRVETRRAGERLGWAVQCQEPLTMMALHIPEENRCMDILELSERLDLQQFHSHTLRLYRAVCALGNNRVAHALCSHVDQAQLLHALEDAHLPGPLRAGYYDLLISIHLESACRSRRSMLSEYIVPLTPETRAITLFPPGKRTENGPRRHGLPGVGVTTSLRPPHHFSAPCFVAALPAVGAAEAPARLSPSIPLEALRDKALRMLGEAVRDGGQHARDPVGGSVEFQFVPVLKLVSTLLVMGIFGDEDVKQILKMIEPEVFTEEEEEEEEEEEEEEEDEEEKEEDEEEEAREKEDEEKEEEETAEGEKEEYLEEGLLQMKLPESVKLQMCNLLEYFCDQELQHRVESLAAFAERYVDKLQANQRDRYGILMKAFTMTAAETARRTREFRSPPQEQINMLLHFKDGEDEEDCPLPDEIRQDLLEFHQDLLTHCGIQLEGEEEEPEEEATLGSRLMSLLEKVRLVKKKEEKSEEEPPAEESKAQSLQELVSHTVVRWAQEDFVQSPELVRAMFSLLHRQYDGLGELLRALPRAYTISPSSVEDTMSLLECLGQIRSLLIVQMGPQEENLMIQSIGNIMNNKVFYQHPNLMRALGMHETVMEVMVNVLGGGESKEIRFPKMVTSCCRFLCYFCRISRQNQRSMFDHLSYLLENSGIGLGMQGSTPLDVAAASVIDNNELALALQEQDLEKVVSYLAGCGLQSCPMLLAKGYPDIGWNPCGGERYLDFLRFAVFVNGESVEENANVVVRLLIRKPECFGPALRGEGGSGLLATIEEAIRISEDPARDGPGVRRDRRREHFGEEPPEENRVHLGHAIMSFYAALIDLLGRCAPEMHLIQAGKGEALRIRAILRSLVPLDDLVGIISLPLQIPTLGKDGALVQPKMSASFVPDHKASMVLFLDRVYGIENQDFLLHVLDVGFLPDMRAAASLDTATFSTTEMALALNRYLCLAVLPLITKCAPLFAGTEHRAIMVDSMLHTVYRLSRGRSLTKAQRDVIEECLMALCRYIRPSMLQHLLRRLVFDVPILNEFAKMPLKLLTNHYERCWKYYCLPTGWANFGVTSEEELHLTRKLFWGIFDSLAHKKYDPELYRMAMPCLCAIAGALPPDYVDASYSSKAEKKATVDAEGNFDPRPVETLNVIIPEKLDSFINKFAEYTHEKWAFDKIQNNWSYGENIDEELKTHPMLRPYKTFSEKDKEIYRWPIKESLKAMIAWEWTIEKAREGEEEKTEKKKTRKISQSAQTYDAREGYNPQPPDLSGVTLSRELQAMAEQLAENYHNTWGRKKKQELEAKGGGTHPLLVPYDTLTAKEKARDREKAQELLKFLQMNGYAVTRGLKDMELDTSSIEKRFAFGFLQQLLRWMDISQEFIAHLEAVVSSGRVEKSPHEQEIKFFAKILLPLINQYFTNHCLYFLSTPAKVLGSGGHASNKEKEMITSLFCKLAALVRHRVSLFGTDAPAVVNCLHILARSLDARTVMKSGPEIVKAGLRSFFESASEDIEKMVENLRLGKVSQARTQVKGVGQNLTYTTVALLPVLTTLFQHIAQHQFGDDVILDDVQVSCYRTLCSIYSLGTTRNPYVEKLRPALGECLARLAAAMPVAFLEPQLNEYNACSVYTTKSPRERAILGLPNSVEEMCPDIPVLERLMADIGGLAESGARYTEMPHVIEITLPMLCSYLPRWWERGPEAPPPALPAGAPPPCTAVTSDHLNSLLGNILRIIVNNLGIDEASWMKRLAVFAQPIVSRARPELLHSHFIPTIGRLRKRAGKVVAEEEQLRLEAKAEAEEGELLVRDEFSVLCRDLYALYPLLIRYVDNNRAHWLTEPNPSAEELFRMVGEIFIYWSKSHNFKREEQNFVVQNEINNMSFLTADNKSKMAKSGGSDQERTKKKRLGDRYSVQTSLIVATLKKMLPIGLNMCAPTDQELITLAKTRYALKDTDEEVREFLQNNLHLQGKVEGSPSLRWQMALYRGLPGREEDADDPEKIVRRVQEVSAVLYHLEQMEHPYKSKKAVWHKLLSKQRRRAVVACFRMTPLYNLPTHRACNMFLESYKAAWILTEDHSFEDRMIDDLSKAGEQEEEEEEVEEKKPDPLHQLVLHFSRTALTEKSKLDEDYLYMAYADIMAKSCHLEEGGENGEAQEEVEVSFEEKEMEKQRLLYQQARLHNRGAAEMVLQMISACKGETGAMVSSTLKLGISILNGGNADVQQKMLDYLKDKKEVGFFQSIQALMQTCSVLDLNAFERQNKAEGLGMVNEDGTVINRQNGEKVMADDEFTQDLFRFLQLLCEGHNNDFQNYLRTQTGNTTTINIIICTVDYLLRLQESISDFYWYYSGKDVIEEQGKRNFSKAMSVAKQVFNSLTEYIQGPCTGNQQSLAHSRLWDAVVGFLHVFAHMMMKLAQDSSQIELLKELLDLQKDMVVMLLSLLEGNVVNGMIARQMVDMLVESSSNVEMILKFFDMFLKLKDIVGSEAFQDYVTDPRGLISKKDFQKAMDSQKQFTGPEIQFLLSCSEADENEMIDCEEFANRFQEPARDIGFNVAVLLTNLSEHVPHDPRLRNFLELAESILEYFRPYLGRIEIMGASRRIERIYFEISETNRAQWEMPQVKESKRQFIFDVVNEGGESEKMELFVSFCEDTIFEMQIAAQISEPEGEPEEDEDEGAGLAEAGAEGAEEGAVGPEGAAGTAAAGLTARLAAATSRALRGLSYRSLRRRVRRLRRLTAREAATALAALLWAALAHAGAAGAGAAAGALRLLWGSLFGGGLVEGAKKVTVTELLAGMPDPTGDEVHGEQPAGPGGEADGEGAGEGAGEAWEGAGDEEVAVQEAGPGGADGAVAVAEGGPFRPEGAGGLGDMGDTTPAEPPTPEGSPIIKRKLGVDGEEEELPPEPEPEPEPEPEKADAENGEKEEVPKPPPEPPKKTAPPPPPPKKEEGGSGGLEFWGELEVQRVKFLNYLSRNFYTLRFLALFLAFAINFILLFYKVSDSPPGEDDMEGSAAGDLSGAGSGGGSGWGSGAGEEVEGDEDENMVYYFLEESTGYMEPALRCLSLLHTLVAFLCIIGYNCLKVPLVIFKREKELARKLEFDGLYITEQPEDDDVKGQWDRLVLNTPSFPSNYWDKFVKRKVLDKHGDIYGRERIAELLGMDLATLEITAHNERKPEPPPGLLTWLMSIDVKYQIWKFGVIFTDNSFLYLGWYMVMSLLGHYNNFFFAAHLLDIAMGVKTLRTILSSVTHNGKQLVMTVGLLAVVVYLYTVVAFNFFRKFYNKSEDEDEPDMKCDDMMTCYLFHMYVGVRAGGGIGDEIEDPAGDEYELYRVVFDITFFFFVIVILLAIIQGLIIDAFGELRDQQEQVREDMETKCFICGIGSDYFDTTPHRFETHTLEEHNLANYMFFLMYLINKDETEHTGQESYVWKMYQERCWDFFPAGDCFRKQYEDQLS
Method: Crude sarcoplasmic reticulum membrane vesicles were isolated from porcine longissimus dorsi muscle and porcine cardiac left ventricle tissue by differential centrifugation of homogenized tissue, as established previously ([65]). Skeletal heavy SR (HSR) vesicles, which are enriched with RyR1, were isolated by fractionation of crude skeletal SR vesicles using a discontinuous sucrose gradient, in accordance with our published work ([65]). All vesicles were flash-frozen and stored at −80 °C.
In 96-well plates, skeletal SR membranes (HSR, 1 mg/ml) and cardiac SR membranes (CSR, 3 mg/ml) were preincubated with 1% DMSO or hit compound for 30 min at 22 °C in a solution containing 150 mM KCl, 5 mM GSH, 1 μg/ml Aprotinin/Leupeptin, 1 mM EGTA, and 65 μM or 1.02 mM CaCl2 (as determined by MaxChelator to yield 30 nM or 30 μM of free Ca^2+, respectively), 0.1 mg/ml of BSA, and 20 mM K-PIPES (pH 7.0). Nonspecific [^3H]ryanodine binding to SR was assessed by addition of 40 μM nonradioactively labeled ryanodine. Maximal [^3H]ryanodine binding was assessed by addition of 5 mM adenylyl-imidodiphosphate (AMP-PNP), and in the case of CSR, 20 mM caffeine was added. These control samples were each loaded over four wells per plate. Binding of [^3H]ryanodine (7.5 and 10 nM for CSR and HSR, respectively) was determined following a 3 h incubation at 37 °C and filtration through grade GF/B glass microfiber filters (Brandel Inc) using a Brandel Harvester. In 4 ml of Ecolite scintillation cocktail (MP biomedicals), [^3H]ryanodine retained on the filter was counted using a Beckman LS6000 scintillation counter.

[2] = target: T2, RyR1 (Rattus norvegicus, UniProt F1LMY4); assay: t-tubule Ca2+ measurement of RyR1 leak in skinned skeletal muscle fibers; assay type: cell-based; conditions: 10 μM FA or 1 mM tetracaine, [Ca2+]cyto 200 nM
T2 construct: from tissue; host or cells: Wistar rat extensor digitorum longus (EDL), mechanically skinned single fibres
Method: All experimental methods using rodents were approved by the Animal Ethics Committees at The University of Queensland and were performed in accordance with the relevant guidelines and regulations. Five-month-old Wistar rats (UQ Biological Resources) were euthanized by asphyxiation via CO2 exposure, and the extensor digitorum longus (EDL) was rapidly excised. Once dissected, muscles were pinned to Sylgard set in a Petri dish containing paraffin oil.
Bundles of fibers were isolated and exposed to an internal solution containing rhod-5N, as described previously ([47]). After 15 min incubation, single skeletal muscle fibers were mechanically skinned and mounted in a custom-made chamber. […] For tracking Ca^2+ movements across the t-system membrane, images were continuously recorded in xyt mode with an aspect ratio of 256 × 512, with the long aspect of the image parallel with that of the preparation. Temporal resolution of imaging in this mode where the fluorescence signal was within the borders of the fiber was 0.8 s.
T-system rhod-5N fluorescence was converted to [Ca^2+]t-sys as previously described ([47]). To determine the effect of RyR modulators on the RyR Ca^2+ leak, isolated mechanically skinned fibers were continuously imaged as described above, to obtain a record of t-system rhod-5N fluorescence changes over time as the cytoplasmic solution bathing the fiber was changed. […]

[3] = target: T3, human RyR2 (Homo sapiens, UniProt Q92736); assay: [Ca2+]ER load in permeabilized HEK293 cells expressing GFP-hRyR2, mCer-SERCA2a, R-CEPIA1er; assay type: cell-based; conditions: compared to vehicle
T3 construct: expressed in transfected cells; host or cells: HEK293, transient co-transfection with mCer-SERCA2a and R-CEPIA1er
Method: The method for measuring of [Ca^2+]ER load-leak balance in HEK293 cells was previously described ([48]). Briefly, HEK293 cells were transiently cotransfected with plasmids encoding GFP-hRyR2, mCer-SERCA2a, and R-CEPIA1er cDNAs. After 48 h of protein expression, transfected cells were used for the confocal experiments. Before each measurement, cells were washed with a solution containing (in mM): 150 K-aspartate, 0.25 MgCl2, 0.1 EGTA, 10 HEPES, pH 7.2. Then, the cellular plasma membranes were permeabilized with 0.005% saponin dissolved in the experimental solution containing (in mM): K-aspartate 100; KCl 15; KH2PO4 5; MgATP 5; EGTA 0.35; CaCl2 0.22; MgCl2 0.75; HEPES 10; dextran (MW: 40,000) 2%, pH 7.2. Free [Ca^2+] and [Mg^2+] were set at 100 nM and 1 mM respectively. After 3 min of saponin incubation, the permeabilized cells were perfused with saponin-free experimental solution.
Changes in [Ca^2+]ER load-leak balance in permeabilized HEK293 cells were monitored using a laser scanning confocal microscope (Radiance 2000 MP, BioRad) equipped with a 40× oil objective lens (N.A. =1.3). […]
Cells were perfused with the experimental solution for 3 min to ensure a steady [Ca^2+]ER signal. […] Fmax was determined upon application of 2 μM ionomycin and 10 mM Ca^2+. Changes in [Ca^2+]ER were calculated according to [Ca^2+]ER = (F−Fmin)/(Fmax−Fmin).

SMILES: CC(=O)O[C@H]1C[C@@]2(C)[C@@H](C[C@@H](O)[C@H]3[C@@]4(C)CC[C@@H](O)[C@@H](C)[C@@H]4CC[C@@]32C)/C1=C(\CCC=C(C)C)C(=O)O [FA, (2Z)-2-[(3R,4S,5S,8S,9S,10S,11R,13R,14S,16S)-16-acetyloxy-3,11-dihydroxy-4,8,10,14-tetramethyl-2,3,4,5,6,7,9,11,12,13,15,16-dodecahydro-1H-cyclopenta[a]phenanthren-17-ylidene]-6-methylhept-5-enoic acid]
- EC50 ([1]; [Ca2+] 30 nM): 0.01 µM
- EC50 ([1]; [Ca2+], 30 µM): 21.1 µM
- maximum inhibitory effect on [3H]ryanodine binding ([1]; skeletal SR, 30 nM Ca2+): ~50%
- effect on [3H]ryanodine binding to RyR1 ([1]; skeletal SR, 30 μM Ca2+): strongly increased
- steady-state [Ca2+]t-sys (RyR1 leak) [2]: decreased
- [Ca2+]ER increase ([3]; 5 μM FA): 94 ± 17%
- [Ca2+]ER decrease ([3]; 10 μM FA): 24 ± 8%
